Like-named read-outs stand apart in the source and are kept apart here.
Experiments:
[1] = system: MCP-1 (monocyte chemoattractant protein)
Protocol: CD-1 male mouse, 6 to 7 weeks and 32-38 grams from Charles River Labs were used in the study. […] Briefly, mice were allowed optimal inhalation and passive gravitational flow of LPS directly to the lungs. 50 μg (in 50 μl) LPS was instilled into the nares in five boluses of 10 μl each. […] For processing, a mammalian protease inhibitor cocktail (diluted 1:100 in PBS) was added to each lung sample. Lungs were homogenized by Beadbeater with 2 mm zirconia beads for 1.5 minutes. Homogenates were spun at 10K for 10 minutes at 4° C., and supernatants collected for analysis. Quantikine kit (R&D Systems) assays for JE/MCP-1 were performed as per kit protocols. For the lungs samples, MCP-1 content was expressed as pg/mg of protein. Protein measurements were performed by Pierce™ BCA Protein Assay Kit according to the protocol provided by a manufacturer.

RPMI 8226 myeloma cells = conditions: 5 μM pHLIP-Dexa, 2 hrs without FBS, viability after 22 hours
Protocol: Myeloma cancer cells were loaded in the wells (30,000 cells/well) and incubated overnight. […] Cell viability was assessed after 22 hours using the colorimetric CellTiter 96 AQueous One Solution Cell Proliferation Assay by absorption measurement at 490 nm.

[2] = system: oxazolone-induced contact hypersensitivity; conditions: 24 hrs after oxazolone challenge; pHLIP-Dexa 4.6 mg/kg i.p. vs Dexa 0.46 mg/kg i.p. and 20 mg/kg orally
Protocol: CD-1 male mouse, 8 to 10 weeks from Charles River Labs were used in the study. Contact hypersensitivity was induced by sensitization and challenge with oxazalone as follows: on day 1, mice are sensitized to oxazalone by application (50 μL; 3% in 100% ethanol) to the abdominal area (previously shaved) and to each footpad (5 μL). On day 6, mice were exposed to oxazalone (20 μL; 1% in 100% ethanol) by application to each side of right ear. Twenty-four hrs after challenge (day 7), dermatitis severity was measured using a visual scale: 0—no evidence of erythema or swelling; 1—mild swelling; 2—mild erythema and moderate selling; 3—erythema and severe swelling. Ear thickness was measured using a micrometer once, prior to sensitization on day 1 (baseline) and once, after dosing on day 7 of the study.

## pHLIP-(PEG4)-dexamethasone [pHLIP-Dexa]
[1]; dose 4.6 mg/kg in PBS/5% DMSO, 30 minutes after LPS
  reduction of level of MCP-1 protein: very effective in reducing level of MCP-1 protein
[1]; high dose 11.4 mg/kg in PBS/5% DMSO
  reduction of level of MCP-1 protein: less effective
RPMI 8226 myeloma cells
  myeloma cancer cell viability, pHLIP-Dexa alone: induced myeloma cancer cells death
[2]
  decrease of thickness of animal ear: as effective as high and low doses of Dexa
  reduction of inflammation (dermatitis severity, scale 0 to 3): as effective as high and low doses of Dexa
